PMC3234688 (2011)
pIC50: −log10 of the molar value.

Tested on: tubulin (αβ-tubulin; colchicine site in β-subunit)
Assay: [3H]colchicine competition on purified tubulin
Assay type: biochemical

SMILES	pIC50
O=c1cc(-c2ccccc2)[nH]c2ccc3c(ccn3CC3CC3)c12 [MG-2477, 3-cyclopropylmethyl-7-phenyl-3H-pyrrolo[3,2-f]quinolin-9(6H)-one]	6.05
COc1ccc(/C=C\c2cc(OC)c(OC)c(OC)c2)cc1O [combretastatin A-4]	5.92
